Data taken from PubChem BioAssay AID1745844 (Carcinogenic Potency Database (CPDB), 2022).
Where “and” joins values, the source holds several entries; their conditions need not be identical. Equal entries are not always repeated. Calls of active or inactive are those of the source. How the calls were made is not given here.

Tested on: rodent lifetime carcinogenesis bioassay, tumor incidence TD50
Experiment: chronic cancer bioassays in animals – CPDB, compiled studies (AID 1745844)

## CC(=O)CN(N=O)C(=O)NCCCl
hamster, strain Syrian Golden, females, by gavage, site: spleen, lesion: all vascular tumors, dosed 43 weeks, study length 75 weeks
  TD50: 0.774 mg/kg/day
hamster, strain Syrian Golden, males, by gavage, site: spleen, lesion: hemangiosarcoma, dosed 43 weeks, study length 75 weeks
  TD50: 0.216 mg/kg/day
rat, strain Fischer 344, females, by gavage, site: liver, lesion: one or several types, types not named, dosed 30 weeks, study length 104 weeks
  TD50: 1.36 mg/kg/day
rat, strain Fischer 344, females, by gavage, site: nervous system, lesion: one or several types, types not named, dosed 30 weeks, study length 104 weeks
  TD50: 4.49 mg/kg/day
rat, strain Fischer 344, females, in drinking water, site: lung, lesion: one or several types, types not named, dosed 30 weeks, study length 104 weeks
  TD50: 4.49 mg/kg/day
rat, strain Fischer 344, females, in drinking water, site: nervous system, lesion: one or several types, types not named, dosed 30 weeks, study length 104 weeks
  TD50: 4.49 mg/kg/day
rat, strain Fischer 344, males, by gavage, site: lung, lesion: one or several types, types not named, dosed 30 weeks, study length 104 weeks
  TD50: 3.14 mg/kg/day
rat, strain Fischer 344, males, by gavage, site: nervous system, lesion: one or several types, types not named, dosed 30 weeks, study length 104 weeks
  TD50: 0.951 mg/kg/day
rat, strain Fischer 344, males, in drinking water, site: liver, lesion: one or several types, types not named, dosed 30 weeks, study length 104 weeks
  TD50: 3.14 mg/kg/day
rat, strain Fischer 344, males, in drinking water, site: lung, lesion: one or several types, types not named, dosed 30 weeks, study length 104 weeks
  TD50: 1.5 mg/kg/day
rat, strain Fischer 344, males, in drinking water, site: nervous system, lesion: one or several types, types not named, dosed 30 weeks, study length 104 weeks
  TD50: 3.14 mg/kg/day

## CCSC[C@H](N)C(=O)O
rat, strain Wistar, males, in feed, site: abdomen, lesion: liposarcoma, dosed 58 weeks, study length 89 weeks
  TD50: 3630 mg/kg/day (inactive)
rat, strain Wistar, males, in feed, site: any site (literature study), lesion: several types, types named in the paper, dosed 58 weeks, study length 89 weeks
  TD50: 3630 mg/kg/day (inactive)
rat, strain Wistar, males, in feed, site: liver, lesion: one or several types, types not named, dosed 58 weeks, study length 89 weeks
  carcinogen call: negative (inactive)

## CC1CN(/N=C/c2ccc([N+](=O)[O-])o2)C(=O)N1 (stereo unspecified)
rat, strain Sprague-Dawley, females, in feed, site: any site (literature study), lesion: several types, types named in the paper, dosed 46 weeks, study length 66 weeks
  TD50: 5.59 mg/kg/day
rat, strain Sprague-Dawley, females, in feed, site: mammary gland, lesion: adenocarcinoma, dosed 46 weeks, study length 66 weeks
  TD50: 5.34 mg/kg/day

## S=c1nc[nH]c2nc[nH]c12
rat, strain BR 46, males, i.v., site: any site (literature study), lesion: several types, types named in the paper, dosed 52 weeks, study length 104 weeks
  TD50: 58.1 mg/kg/day (inactive)
rat, strain F344/DuCrj, females, in feed, site: adrenal gland, lesion: pheochromocytoma, dosed 104 weeks, study length 113 weeks
  TD50: 22.5 mg/kg/day
rat, strain F344/DuCrj, females, in feed, site: any site (literature study), lesion: malignant tumor, dosed 104 weeks, study length 113 weeks
  TD50: 10.3 mg/kg/day
rat, strain F344/DuCrj, females, in feed, site: any site (literature study), lesion: several types, types named in the paper, dosed 104 weeks, study length 113 weeks
  TD50: 4.74 mg/kg/day
rat, strain F344/DuCrj, females, in feed, site: central nervous system, lesion: several types, types named in the paper, dosed 104 weeks, study length 113 weeks
  TD50: 34.1 mg/kg/day
rat, strain F344/DuCrj, females, in feed, site: liver, lesion: hepatocellular carcinoma, dosed 104 weeks, study length 113 weeks
  TD50: 139 mg/kg/day
rat, strain F344/DuCrj, females, in feed, site: uterus, lesion: adenocarcinoma, dosed 104 weeks, study length 113 weeks
  TD50: 34.1 mg/kg/day

## CCCCCCCCCCCC[N+](C)(C)[O-]
rat, strain Fischer 344, females, in drinking water, site: liver, lesion: neoplastic nodule, dosed 93 weeks, study length 128 weeks
  carcinogen call: negative (inactive)
rat, strain Fischer 344, males, in drinking water, site: liver, lesion: hepatocellular carcinoma, dosed 93 weeks, study length 128 weeks
  TD50: 519 mg/kg/day (inactive)
rat, strain Fischer 344, males, in drinking water, site: liver, lesion: neoplastic nodule, dosed 93 weeks, study length 128 weeks
  TD50: 496 mg/kg/day (inactive)
rat, strain Fischer 344, males, in drinking water, site: liver, lesion: several types, types named in the paper, dosed 93 weeks, study length 128 weeks
  TD50: 231 mg/kg/day (inactive)

## CC(=O)Oc1c(C)c(C)c2c(c1C)CCC(C)(CCCC(C)CCCC(C)CCCC(C)C)O2 (stereo unspecified)
rat, strain Charles River CD (Sprague-Dawley), females, in feed, site: any site (literature study), lesion: malignant tumor, dosed 104 weeks, study length 104 weeks
  carcinogen call: negative (inactive)
rat, strain Charles River CD (Sprague-Dawley), females, in feed, site: any site (literature study), lesion: several types, types named in the paper, dosed 104 weeks, study length 104 weeks
  carcinogen call: negative (inactive)
rat, strain Charles River CD (Sprague-Dawley), females, in feed, site: liver, lesion: one or several types, types not named, dosed 52 weeks, study length 52 weeks
  carcinogen call: negative (inactive)
rat, strain Charles River CD (Sprague-Dawley), females, in feed, site: liver, lesion: one or several types, types not named, dosed 104 weeks, study length 104 weeks
  carcinogen call: negative (inactive)
rat, strain Charles River CD (Sprague-Dawley), males, in feed, site: any site (literature study), lesion: malignant tumor, dosed 104 weeks, study length 104 weeks
  TD50: 67800 mg/kg/day (inactive)
rat, strain Charles River CD (Sprague-Dawley), males, in feed, site: any site (literature study), lesion: several types, types named in the paper, dosed 104 weeks, study length 104 weeks
  TD50: 67800 mg/kg/day (inactive)
rat, strain Charles River CD (Sprague-Dawley), males, in feed, site: liver, lesion: one or several types, types not named, dosed 52 weeks, study length 52 weeks
  carcinogen call: negative (inactive)
rat, strain Charles River CD (Sprague-Dawley), males, in feed, site: liver, lesion: one or several types, types not named, dosed 104 weeks, study length 104 weeks
  carcinogen call: negative (inactive)

## Cc1cc(O)c2c(c1)C(=O)c1cc(O)cc(O)c1C2=O
mouse, strain B6C3F1, females, in feed, site: any site (literature study), lesion: several types, types named in the paper, dosed 104 weeks, study length 104 weeks
  TD50: 548 mg/kg/day (inactive)
mouse, strain B6C3F1, females, in feed, site: lung, lesion: alveolar/bronchiolar adenoma + alveolar/bronchiolar carcinoma, dosed 104 weeks, study length 104 weeks
  TD50: 65800 mg/kg/day
mouse, strain B6C3F1, males, in feed, site: kidney, lesion: tubule adenoma + tubule carcinoma, dosed 104 weeks, study length 104 weeks
  TD50: 965 mg/kg/day and 885 mg/kg/day
rat, strain Fischer 344, females, in feed, site: Zymbal's gland, lesion: carcinoma, dosed 104 weeks, study length 104 weeks
  TD50: 1970 mg/kg/day
rat, strain Fischer 344, females, in feed, site: any site (literature study), lesion: several types, types named in the paper, dosed 104 weeks, study length 104 weeks
  TD50: 797 mg/kg/day
rat, strain Fischer 344, females, in feed, site: liver, lesion: hepatocellular adenoma + hepatoblastoma + hepatocellular carcinoma, dosed 104 weeks, study length 104 weeks
  TD50: 4300 mg/kg/day
rat, strain Fischer 344, males, in feed, site: any site (literature study), lesion: several types, types named in the paper, dosed 104 weeks, study length 104 weeks
  carcinogen call: negative (inactive)

## C=CCN(CC(O)CO)N=O (stereo unspecified)
rat, strain Fischer 344, females, in drinking water, site: esophagus, lesion: carcinoma, dosed 50 weeks, study length 55 weeks
  TD50: 1.13 mg/kg/day
rat, strain Fischer 344, females, in drinking water, site: esophagus, lesion: several types, types named in the paper, dosed 50 weeks, study length 55 weeks
  TD50: 0.825 mg/kg/day
rat, strain Fischer 344, females, in drinking water, site: liver, lesion: neoplastic nodule, dosed 50 weeks, study length 55 weeks
  carcinogen call: negative (inactive)
rat, strain Fischer 344, females, in drinking water, site: nasal cavity, lesion: several types, types named in the paper, dosed 50 weeks, study length 55 weeks
  TD50: 0.972 mg/kg/day
